{"source": "patent US12371748B2", "about": "“Genetic markers for predicting responsiveness to therapy with HDL-raising or HDL mimicking agent” (Hoffmann-La Roche Inc., priority 2014, dated 2025)", "test_system": "patients with evidence of coronary artery disease", "experiment": "dal-PLAQUE-2: change in carotid intima-media thickness (B-mode ultrasound) by ADCY9 genotype", "assay_type": "in vivo, human", "source_text": "The dal-PLAQUE-2 study (Tardif J C et al, Circulation Cardiovascular imaging 2011; 4:319-33) was a phase 3b multicenter, double-blind, randomized, placebo-controlled, parallel group trial designed to evaluate the effect of dalcetrapib on atherosclerotic disease progression in patients with evidence of coronary artery disease and carotid intima media thickness of at least 0.65 mm in the far wall of the common carotid arteries, as assessed by B-mode ultrasonography. A total of 931 patients were randomized to receive dalcetrapib 600 mg daily or matching placebo with intended treatment duration of 24 months. However, the trial was terminated prematurely concurrent with the termination of dal OUTCOMES (the latter due to futility). Patients continued study medication until they returned for follow-up carotid imaging at 12 months. Carotid B-mode ultrasound recordings at baseline, month 6, and month 12 were analyzed centrally at the core laboratory of the Montreal Heart Institute. Intima-media thickness (IMT) was analyzed on the far wall of the common carotid arteries. A segment of 10 mm in length of the common carotid artery was analyzed on serial examinations using an automated edge detection software (Carotid Analyzer, Medical Imaging Applications, Coralville, Iowa). Among the 411 participants in the dal-PLAQUE-2 trial who consented to the genetic study, 386 had imaging measures at baseline, 6 months and 12 months (194 and 192 in the dalcetrapib and placebo arms respectively). DNA was extracted from whole blood. The research protocols were approved by the relevant institutional review boards or ethics committees and all human participants gave written informed consent.\nAll acquired carotid ultrasound recordings were analyzed at the core laboratory of the Montreal Heart Institute by experienced technicians supervised by a physician. Images were required to meet quality and inclusion and exclusion criteria for eligibility prior to random assignment to study treatment. The methods for carotid intima-media thickness analysis included side-by-side viewing of baseline and follow-up studies.\nCarotid arterial wall segments were assessed in a longitudinal view, perpendicular to the ultrasound beam, with a horizontal display of the arterial image in order to view the interfaces between blood and vascular structures on the longest possible segment. The localization of the end of the common carotid artery was used as the landmark in repositioning and analyzing comparative length of segments in baseline and follow-up studies. Intima-media thickness was analyzed on the far wall of the right and left common carotid arteries, to reduce variability of measurements. The average of the mean intima-media thickness values of the right and left common carotid arteries was used. A matched segment of 10 mm in length of the common carotid artery was analyzed on serial examinations (baseline, 6 months and 12 months), starting 5 mm proximal to the carotid bifurcation. The edge detection software Carotid Analyzer (Medical Imaging Applications LLC, Coralville, Iowa) was used to analyze intima-media thickness using the automated option. Two sets of carotid artery borders were identified: First, the media-adventitia borders were determined and verified by the reader. When required, their locations were semi-automatically modified to the correct location. When these borders were approved, the lumen-intima boundaries were automatically detected using the media-adventitia borders for guidance. Frames from looped sequences of intima-media thickness were selected for reading, and poor quality outlier frames were removed from the analysis when required.\nFor the dal-Plaque-2 population, mixed regression models for repeated measures analysis were tested in SAS software. The dal-Plaque-2 tested endpoint was the mean of IMT measures of common carotid arteries at the 6-month and the 12-month visits, using the baseline measure as covariate. […]", "data": [{"smiles": "CCC(CC)CC1(C(=O)Nc2ccccc2SC(=O)C(C)C)CCCCC1", "note": "[dalcetrapib, thioisobutyric acid S-(2-{[1-(2-ethyl-butyl)-cyclohexanecarbonyl]-amino}-phenyl) ester]", "values": [{"measurement": "Change from baseline in carotid intima-media thickness, Mean", "setting": "rs8061182, homozygotes for minor allele, M12", "value": "−0.001", "unit": "mm"}, {"measurement": "Change from baseline in carotid intima-media thickness, Mean", "setting": "rs11647778, heterozygotes, M06", "value": "−0.002", "unit": "mm"}, {"measurement": "Change from baseline in carotid intima-media thickness, Mean", "setting": "rs11647778, heterozygotes, M12", "value": 0.001, "unit": "mm"}, {"measurement": "Change from baseline in carotid intima-media thickness, Mean", "setting": "rs11647778, homozygotes for major allele, M06", "value": 0.011, "unit": "mm"}, {"measurement": "Change from baseline in carotid intima-media thickness, Mean", "setting": "rs11647778, homozygotes for major allele, M12", "value": 0.008, "unit": "mm"}, {"measurement": "Change from baseline in carotid intima-media thickness, Mean", "setting": "rs11647778, homozygotes for minor allele, M06", "value": "−0.013", "unit": "mm"}, {"measurement": "Change from baseline in carotid intima-media thickness, Mean", "setting": "rs11647778, homozygotes for minor allele, M12", "value": "−0.026", "unit": "mm"}, {"measurement": "Change from baseline in carotid intima-media thickness, Mean", "setting": "rs11647828, heterozygotes, M06", "value": "−0.002", "unit": "mm"}, {"measurement": "Change from baseline in carotid intima-media thickness, Mean", "setting": "rs11647828, heterozygotes, M12", "value": "−0.003", "unit": "mm"}, {"measurement": "Change from baseline in carotid intima-media thickness, Mean", "setting": "rs11647828, homozygotes for major allele, M06", "value": 0.011, "unit": "mm"}, {"measurement": "Change from baseline in carotid intima-media thickness, Mean", "setting": "rs11647828, homozygotes for major allele, M12", "value": 0.009, "unit": "mm"}, {"measurement": "Change from baseline in carotid intima-media thickness, Mean", "setting": "rs11647828, homozygotes for minor allele, M06", "value": "−0.018", "unit": "mm"}, {"measurement": "Change from baseline in carotid intima-media thickness, Mean", "setting": "rs11647828, homozygotes for minor allele, M12", "value": "−0.020", "unit": "mm"}, {"measurement": "Change from baseline in carotid intima-media thickness, Mean", "setting": "rs12595857, heterozygotes, M06", "value": "−0.003", "unit": "mm"}, {"measurement": "Change from baseline in carotid intima-media thickness, Mean", "setting": "rs12595857, heterozygotes, M12", "value": "−0.002", "unit": "mm"}, {"measurement": "Change from baseline in carotid intima-media thickness, Mean", "setting": "rs12595857, homozygotes for major allele, M06", "value": 0.011, "unit": "mm"}, {"measurement": "Change from baseline in carotid intima-media thickness, Mean", "setting": "rs12595857, homozygotes for major allele, M12", "value": 0.010, "unit": "mm"}, {"measurement": "Change from baseline in carotid intima-media thickness, Mean", "setting": "rs12595857, homozygotes for minor allele, M06", "value": "−0.008", "unit": "mm"}, {"measurement": "Change from baseline in carotid intima-media thickness, Mean", "setting": "rs12595857, homozygotes for minor allele, M12", "value": "−0.018", "unit": "mm"}, {"measurement": "Change from baseline in carotid intima-media thickness, Mean", "setting": "rs12599911, heterozygotes, M06", "value": "−0.003", "unit": "mm"}, {"measurement": "Change from baseline in carotid intima-media thickness, Mean", "setting": "rs12599911, heterozygotes, M12", "value": "−0.002", "unit": "mm"}, {"measurement": "Change from baseline in carotid intima-media thickness, Mean", "setting": "rs12599911, homozygotes for major allele, M06", "value": 0.011, "unit": "mm"}, {"measurement": "Change from baseline in carotid intima-media thickness, Mean", "setting": "rs12599911, homozygotes for major allele, M12", "value": 0.010, "unit": "mm"}, {"measurement": "Change from baseline in carotid intima-media thickness, Mean", "setting": "rs12599911, homozygotes for minor allele, M06", "value": "−0.008", "unit": "mm"}, {"measurement": "Change from baseline in carotid intima-media thickness, Mean", "setting": "rs12599911, homozygotes for minor allele, M12", "value": "−0.019", "unit": "mm"}, {"measurement": "Change from baseline in carotid intima-media thickness, Mean", "setting": "rs12920508, heterozygotes, M06", "value": "−0.003", "unit": "mm"}, {"measurement": "Change from baseline in carotid intima-media thickness, Mean", "setting": "rs12920508, heterozygotes, M12", "value": "−0.001", "unit": "mm"}, {"measurement": "Change from baseline in carotid intima-media thickness, Mean", "setting": "rs12920508, homozygotes for major allele, M06", "value": 0.006, "unit": "mm"}, {"measurement": "Change from baseline in carotid intima-media thickness, Mean", "setting": "rs12920508, homozygotes for major allele, M12", "value": 0.005, "unit": "mm"}, {"measurement": "Change from baseline in carotid intima-media thickness, Mean", "setting": "rs12920508, homozygotes for minor allele, M06", "value": "−0.005", "unit": "mm"}, {"measurement": "Change from baseline in carotid intima-media thickness, Mean", "setting": "rs12920508, homozygotes for minor allele, M12", "value": "−0.021", "unit": "mm"}, {"measurement": "Change from baseline in carotid intima-media thickness, Mean", "setting": "rs12935810, heterozygotes, M06", "value": "−0.003", "unit": "mm"}, {"measurement": "Change from baseline in carotid intima-media thickness, Mean", "setting": "rs12935810, heterozygotes, M12", "value": "−0.001", "unit": "mm"}, {"measurement": "Change from baseline in carotid intima-media thickness, Mean", "setting": "rs12935810, homozygotes for major allele, M06", "value": "−0.006", "unit": "mm"}, {"measurement": "Change from baseline in carotid intima-media thickness, Mean", "setting": "rs12935810, homozygotes for major allele, M12", "value": "−0.007", "unit": "mm"}, {"measurement": "Change from baseline in carotid intima-media thickness, Mean", "setting": "rs12935810, homozygotes for minor allele, M06", "value": 0.021, "unit": "mm"}, {"measurement": "Change from baseline in carotid intima-media thickness, Mean", "setting": "rs12935810, homozygotes for minor allele, M12", "value": 0.010, "unit": "mm"}, {"measurement": "Change from baseline in carotid intima-media thickness, Mean", "setting": "rs13337675, heterozygotes, M06", "value": 0.002, "unit": "mm"}, {"measurement": "Change from baseline in carotid intima-media thickness, Mean", "setting": "rs13337675, heterozygotes, M12", "value": 0.005, "unit": "mm"}, {"measurement": "Change from baseline in carotid intima-media thickness, Mean", "setting": "rs13337675, homozygotes for minor allele, M06", "value": 0.016, "unit": "mm"}, {"measurement": "Change from baseline in carotid intima-media thickness, Mean", "setting": "rs13337675, homozygotes for minor allele, M12", "value": "−0.011", "unit": "mm"}, {"measurement": "Change from baseline in carotid intima-media thickness, Mean", "setting": "rs17136707, heterozygotes, M06", "value": "−0.006", "unit": "mm"}, {"measurement": "Change from baseline in carotid intima-media thickness, Mean", "setting": "rs17136707, heterozygotes, M12", "value": "−0.004", "unit": "mm"}, {"measurement": "Change from baseline in carotid intima-media thickness, Mean", "setting": "rs17136707, homozygotes for minor allele, M06", "value": "−0.015", "unit": "mm"}, {"measurement": "Change from baseline in carotid intima-media thickness, Mean", "setting": "rs17136707, homozygotes for minor allele, M12", "value": "−0.008", "unit": "mm"}, {"measurement": "Change from baseline in carotid intima-media thickness, Mean", "setting": "rs74702385, heterozygotes, M06", "value": "−0.006", "unit": "mm"}, {"measurement": "Change from baseline in carotid intima-media thickness, Mean", "setting": "rs74702385, heterozygotes, M12", "value": "−0.002", "unit": "mm"}, {"measurement": "Change from baseline in carotid intima-media thickness, Mean", "setting": "rs74702385, homozygotes for minor allele, M06", "value": "−0.015", "unit": "mm"}, {"measurement": "Change from baseline in carotid intima-media thickness, Mean", "setting": "rs74702385, homozygotes for minor allele, M12", "value": "−0.008", "unit": "mm"}, {"measurement": "Change from baseline in carotid intima-media thickness, Mean", "setting": "rs111590482, heterozygotes, M06", "value": "−0.006", "unit": "mm"}, {"measurement": "Change from baseline in carotid intima-media thickness, Mean", "setting": "rs111590482, heterozygotes, M12", "value": "−0.002", "unit": "mm"}, {"measurement": "Change from baseline in carotid intima-media thickness, Mean", "setting": "rs111590482, homozygotes for minor allele, M06", "value": "−0.015", "unit": "mm"}, {"measurement": "Change from baseline in carotid intima-media thickness, Mean", "setting": "rs111590482, homozygotes for minor allele, M12", "value": "−0.008", "unit": "mm"}]}]}
